“Also recorded” adds a separate entry of the source.
tested on: HLA alleles of class II; experiment: Affinity of epitopes for HLA alleles of class II; type: binding, human; settings: H2B-II core epitopes, Table 1
Source text: The multiepitopic peptide compounds (24 to 40-mer), having a high affinity with a maximized number of HLA molecules of class I and of class II, such as the affinities for the alleles HLA of class I and HLA of class II of the epitopes in the peptides of the sequences SEQ ID NO: 22, 23, 65, 66, 69, 73, 77, 96, 97, 137, 138, and 157, 185, have a high immunoprevalent potential corresponding to an optimal vaccine coverage, in particular for the populations concerned. The degree of coverage of the peptide compounds of the invention show a very high added value compared with the peptides of the prior art.

Row | Sequence | Affinity HLA alleles of class II
1 | LKAINAQMS (Leishmania major) [SEQ ID NO: 45] | HLA-DRB1*04:05,; also recorded: HLA-DRB1*07:01,; also recorded: HLA-DRB1*08:02,; also recorded: HLA-DRB1*09:01,; also recorded: HLA-DRB1*11:01,; also recorded: HLA-DRB4*01:01,; also recorded: HLA-DRB5*01:01
2 | NAQMSMSHR (Leishmania major) [SEQ ID NO: 46] | HLA-DRB1*01:01
3 | PKRSWNVYV (Leishmania major) [SEQ ID NO: 48] | HLA-DRB1*13:02,; also recorded: HLA-DRB1*15:01
4 | VGRSLKAIN (Leishmania major) [SEQ ID NO: 51] | HLA-DRB1*03:01,; also recorded: HLA-DRB1*04:05,; also recorded: HLA-DRB1*08:02,; also recorded: HLA-DRB1*11:01

same assay, conditions: H2B-II peptides, Table 1

Row | Sequence | Concatenation affinity for the HLA alleles of class II
5 | KPKRSWNVYVGRSLK (Leishmania major) [SEQ ID NO: 25] | HLA-DRB5*01:01, HLA-DRB1*01:01, HLA-DRB1*07:01,; also recorded: HLA-DRB1*09:01, HLA-DRB1*15:01
6 | KRSWNVYVGRSLKAI (Leishmania major) [SEQ ID NO: 27] | HLA-DRB1*01:01, HLA-DRB1*03:01, HLA-DRB1*04:01,; also recorded: HLA-DRB1*11:01, HLA-DRB1*13:02, HLA-DRB1*07:01,; also recorded: HLA-DRB1*09:01, HLA-DRB1*15:01, HLA-DRB5*01:01,; also recorded: HLA-DPA1*02:01/DPB1*01:01
7 | LKAINAQMSMSHRTM (Leishmania major) [SEQ ID NO: 38] | HLA-DRB1*07:01, HLA-DRB1*04:01, HLA-DRB1*04:05,; also recorded: HLA-DRB1*09:01, HLA-DRB1*11:01, HLA-DRB1*15:01,; also recorded: HLA-DRB5*01:01, HLA-DRB1*01:01, HLA-DRB4*01:01,
8 | NVYVGRSLKAINAQM (Leishmania major) [SEQ ID NO: 31] | HLA-DRB1*04:01, HLA-DRB4*01:01, HLA-DRB1*03:01,; also recorded: HLA-DRB1*04:05, HLA-DRB1*11:01, HLA-DRB1*01:01,; also recorded: HLA-DRB1*09:01, HLA-DRB1*15:01, HLA-DRB1*08:02
9 | PKRSWNVYVGRSLKA (Leishmania major) [SEQ ID NO: 26] | HLA-DRB5*01:01, HLA-DRB1*01:01, HLA-DRB1*11:01,; also recorded: HLA-DRB5*13:02, HLA-DRB5*07:01, HLA-DRB5*09:01,; also recorded: HLA-DRB5*15:01
10 | RKPKRSWNVYVGRSL (Leishmania major) [SEQ ID NO: 24] | HLA-DRB1*13:02, HLA-DRB1*01:01, HLA-DRB1*07:01,; also recorded: HLA-DRB1*09:01, HLA-DRB1*15:01
11 | RSLKAINAWMSMSHR (RSLKAINAQMSMSHR; Leishmania major) [SEQ ID NO: 36] | HLA-DRB1*04:01, HLA-DRB1*15:01, HLA-DRB1*05:01,; also recorded: HLA-DRB1*01:01, HLA-DRB1*04:05, HLA-DRB1*07:01,; also recorded: HLA-DRB1*08:02, HLA-DRB1*09:01, HLA-DRB1*11:01,; also recorded: HLA-DRB4*01:01,
12 | RSWNVYVGRSLKAIN (Leishmania major) [SEQ ID NO: 28] | HLA-DRB5*01:01, HLA-DRB1*01:01, HLA-DRB1*03:01,; also recorded: HLA-DRB1*04:01, HLA-DRB1*11:01, HLA-DRB1*13:02,; also recorded: HLA-DRB1*04:05, HLA-DRB1*07:01, HLA-DRB1*09:01,; also recorded: HLA-DRB1*15:01, HLA-DPA1*02:01/DPB1*01:01,; also recorded: HLA-DRB1*08:02
13 | SLKAINAQMSMSHRT (Leishmania major) [SEQ ID NO: 37] | HLA-DRB1*07:01, HLA-DRB1*04:01, HLA-DRB1*04:05,; also recorded: HLA-DRB1*09:01, HLA-DRB1*11:01, HLA-DRB1*15:01,; also recorded: HLA-DRB5*01:01, HLA-DRB1*01:01, HLA-DRB1*08:02,; also recorded: HLA-DRB4*01:01,
14 | SWNVYVGRSLKAINA (Leishmania major) [SEQ ID NO: 29] | HLA-DRB5*01:01, HLA-DRB1*04:05, HLA-DPA1*03:01/; also recorded: DPB1*04:02, HLA-DRB1*01:01, HLA-DRB1*03:01,; also recorded: HLA-DRB1*04:01, HLA-DRB1*11:01, HLA-DRB1*13:02,; also recorded: HLA-DRB1*07:01, HLA-DRB1*09:01, HLA-DRB1*15:01,; also recorded: HLA-DPA1*02:01/DPB1*01:01, HLA-DRB1*08:02
15 | VGRSLKAINAWMSMS (VGRSLKAINAQMSMS; Leishmania major) [SEQ ID NO: 34] | HLA-DRB1*01:01, HLA-DRB1*04:05, HLA-DRB1*07:01,; also recorded: HLA-DRB1*09:01, HLA-DRB4*01:01, HLA-DRB5*01:01,; also recorded: HLA-DRB1*04:01, HLA-DRB1*08:02, HLA-DRB1*11:01,; also recorded: HLA-DRB1*13:02

same assay, conditions: LmLRAB-IIA core, Table 2

Row | Sequence | Concatenation affinity for HLA alleles of class II
16 | LHSVVGRHL (Leishmania major) [SEQ ID NO: 90] | HLA-DRB1*11:01; also recorded: HLA-DRB1*15:01; also recorded: HLA-DRB4*01:01; also recorded: HLA-DRB5*01:01; also recorded: HLA-DRB1*07:01; also recorded: HLA-DRB1*09:01
17 | VGRHLSIVA (Leishmania major) [SEQ ID NO: 91] | HLA-DRB1*15:01

same assay, conditions: LmLRAB-IIA peptides, Table 2

Row | Sequence | Concatenation affinity for HLA alleles of class II
18 | LHSVVGRHLSIVADH (Leishmania major) [SEQ ID NO: 81] | HLA-DRB1*07:01,; also recorded: HLA-DRB1*15:01,; also recorded: HLA-DRB5*01:01,; also recorded: HLA-DRB1*11:01,; also recorded: HLA-DRB1*09:01,
19 | RHLSIVADHMPLHDQ (RHLSIVADHMPHLDQ; Leishmania major) [SEQ ID NO: 87] | HLA-DRB3*01:01,; also recorded: HLA-DRB1*03:01,; also recorded: HLA-DRB1*13:02
20 | RLHSVVGRHLSIVAD (Leishmania major) [SEQ ID NO: 80] | HLA-DRB1*07:01,; also recorded: HLA-DRB1*15:01,; also recorded: HLA-DRB5*01:01,; also recorded: HLA-DRB1*11:01,; also recorded: HLA-DRB1*09:01,
